Key:
hCB1 [1] = target: T1, hCB1 (Homo sapiens, UniProt P21554); test: calcium-mobilization inverse-agonist assay in CHO-hCB1 cells; conditions: neutral antagonist or inverse agonist
[2] = test system: alcohol-induced liver steatosis; conditions: past studies; cited from earlier work
hCB1 [3] = target: T1, hCB1
[4] = test system: CP55940-induced hypothermia (centrally located CB1 receptors); conditions: rodents; cited from earlier work

T1 sequence (P21554 whole entry): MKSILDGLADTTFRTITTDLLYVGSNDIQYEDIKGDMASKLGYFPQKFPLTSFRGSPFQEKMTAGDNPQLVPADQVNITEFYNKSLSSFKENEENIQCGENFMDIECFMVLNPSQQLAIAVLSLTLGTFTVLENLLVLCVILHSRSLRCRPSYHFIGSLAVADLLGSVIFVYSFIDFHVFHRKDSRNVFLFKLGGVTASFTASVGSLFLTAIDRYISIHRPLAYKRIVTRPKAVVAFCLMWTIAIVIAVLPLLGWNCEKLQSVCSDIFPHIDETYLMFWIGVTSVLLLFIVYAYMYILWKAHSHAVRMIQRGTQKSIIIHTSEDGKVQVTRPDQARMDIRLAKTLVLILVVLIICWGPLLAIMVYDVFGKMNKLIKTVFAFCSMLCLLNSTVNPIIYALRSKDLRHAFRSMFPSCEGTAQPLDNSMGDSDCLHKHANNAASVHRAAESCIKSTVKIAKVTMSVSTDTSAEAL

With `Clc1ccc(-n2c(-c3ccccc3Cl)nc3c(N4CCN(Cc5ccccc5Cl)CC4)ncnc32)cc1` [Compound 25, 6-[4-(2-Chlorobenzyl)piperazin-1-yl]-8-(2-chlorophenyl)-9-(4-chlorophenyl)-9H-purine] the “functional mode at hCB1” value (hCB1 [1]) was “inverse agonist”.
For `Cc1c(C(=O)NN2CCCCC2)nn(-c2ccc(Cl)cc2Cl)c1-c1ccc(Cl)cc1` [Compound 1, Rimonabant], the “reduction of alcoholic steatosis (AS)” value [2] is given as “effective at reducing AS”.
In the case of `N#CC(c1ccccc1)N1CCN(c2ncnc3c2nc(-c2ccccc2Cl)n3-c2ccc(Cl)cc2)CC1` (stereo not shown) [Compound 21, {4-[8-(2-Chlorophenyl)-9-(4-chlorophenyl)-9H-purin-6-yl]-piperazin-1-yl}(phenyl)acetonitrile], the “selectivity for hCB1 over hCB2 (binding assays)” value (hCB1 [3]) is reported as ~ 60 fold.
For `CCNC1(C(N)=O)CCN(c2ncnc3c2nc(-c2ccccc2Cl)n3-c2ccc(Cl)cc2)CC1` [Compound 2, otenabant], the “blocking of CP55940-induced reduction of body temperature” value [4] is given as “known to block this effect”.

Source: paper PMC7607848 (Journal of medicinal chemistry, 2018)
